Experimental data as given in ChEMBL document CHEMBL4052617, “Antibacterial activity of N-methylbenzofuro[3,2-b]quinoline and N-methylbenzoindolo[3,2-b]-quinoline derivatives and study of their mode of action” (2017).
Active and inactive are the calls of the source. The calls are words filed in the database; no cut-off is given here.

Columns and labels:
[1] = test system: Enterococcus faecium; experiment: Antibacterial activity against antibiotic-susceptile Enterococcus faecium ATCC 49624 after 18 hrs by brain heart infusion broth microdilution method; assay type: functional; conditions: ATCC 49624, 18 h
[2] = test system: Enterococcus faecium; experiment: Antibacterial activity against vancomycin-resistant Enterococcus faecium ATCC 700221 after 18 hrs by brain heart infusion broth microdilution method; assay type: functional; conditions: ATCC 700221, 18 h
[3] = test system: Bacillus subtilis; experiment: Antibacterial activity against Bacillus subtilis 168 after 18 hrs by Mueller-Hinton broth microdilution method; assay type: functional; conditions: subsp. subtilis str. 168, 18 h
[4] = test system: Staphylococcus aureus; experiment: Antibacterial activity against Staphylococcus aureus ATCC 29213 after 18 hrs by cation adjusted Mueller-Hinton broth microdilution method; assay type: functional; conditions: ATCC 29213, 18 h
[5] = test system: Staphylococcus aureus; experiment: Antibacterial activity against methicillin-resistant Staphylococcus aureus ATCC BAA41 after 18 hrs by cation adjusted Mueller-Hinton broth microdilution method; assay type: functional; conditions: ATCC BAA41, 18 h
[6] = test system: Escherichia coli; experiment: Antibacterial activity against Escherichia coli ATCC 25922 after 18 hrs by Mueller-Hinton broth microdilution method; assay type: functional; conditions: ATCC 25922, 18 h
[7] = test system: Escherichia coli; experiment: Antibacterial activity against Escherichia coli ATCC […] expressing NDM-1 beta-lactamase after 18 hrs by Mueller-Hinton broth microdilution method; assay type: functional
[8] = test system: Pseudomonas aeruginosa; experiment: Antibacterial activity against multidrug-resistant Pseudomonas aeruginosa ATCC BAA2108 after 18 hrs by Mueller-Hinton broth microdilution method; assay type: functional; conditions: ATCC BAA2108, 18 h
[9] = test system: Klebsiella pneumoniae; experiment: Antibacterial activity against Klebsiella pneumoniae ATCC BAA2470 expressing NDM-1 beta-lactamase after 18 hrs by Mueller-Hinton broth microdilution method; assay type: functional; conditions: ATCC BAA2470, 18 h
[10] = molecular target: T1, Cell division protein FtsZ (Staphylococcus aureus) (UniProt P0A031); experiment: Inhibition of recombinant N-terminal His6-tagged Staphylococcus aureus ATCC 29213 FtzS polymerization expressed in Escherichia coli BL21 (DE3) cells at 16 ug/ml in presence of GTP by fluorescence spectrometry method
T1 sequence (whole entry): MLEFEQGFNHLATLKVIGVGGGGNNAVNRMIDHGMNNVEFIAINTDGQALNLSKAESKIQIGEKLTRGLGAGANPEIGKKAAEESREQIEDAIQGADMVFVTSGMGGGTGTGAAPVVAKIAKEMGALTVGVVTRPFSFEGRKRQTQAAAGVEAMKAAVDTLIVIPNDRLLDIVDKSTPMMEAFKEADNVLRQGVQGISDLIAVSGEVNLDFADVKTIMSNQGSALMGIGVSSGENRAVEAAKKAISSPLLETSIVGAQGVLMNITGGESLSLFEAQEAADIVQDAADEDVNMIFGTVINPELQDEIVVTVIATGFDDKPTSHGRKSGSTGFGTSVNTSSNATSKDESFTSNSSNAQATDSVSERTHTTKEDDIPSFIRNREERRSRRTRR

[11] = molecular target: T1, Cell division protein FtsZ (Staphylococcus aureus); experiment: (§1) Inhibition of recombinant N-terminal His6-tagged Staphylococcus aureus FtzS expressed in Escherichia coli BL21 (DE3) cells assessed as reduction in protein polymer thickness at 8 ug/ml preincubated for 10 mins followed by GTP addition after 15 mins by phosphotungstic acid staining based transmission electron microscopic method
[12] = molecular target: T1, Cell division protein FtsZ (Staphylococcus aureus); experiment: as §1, with “protofilament bundling” for “polymer thickness”
[13] = molecular target: T2, Cell division protein FtsZ (Bacillus subtilis (strain 168)) (UniProt P17865); experiment: Inhibition of Bacillus subtilis 168 GTPase activity of FtsZ assessed as increase in cell length at 2 ug/ml after 4 hrs by phase-contrast optical microscopic analysis; conditions: Bacillus subtilis subsp. subtilis str. 168
T2 sequence (whole entry): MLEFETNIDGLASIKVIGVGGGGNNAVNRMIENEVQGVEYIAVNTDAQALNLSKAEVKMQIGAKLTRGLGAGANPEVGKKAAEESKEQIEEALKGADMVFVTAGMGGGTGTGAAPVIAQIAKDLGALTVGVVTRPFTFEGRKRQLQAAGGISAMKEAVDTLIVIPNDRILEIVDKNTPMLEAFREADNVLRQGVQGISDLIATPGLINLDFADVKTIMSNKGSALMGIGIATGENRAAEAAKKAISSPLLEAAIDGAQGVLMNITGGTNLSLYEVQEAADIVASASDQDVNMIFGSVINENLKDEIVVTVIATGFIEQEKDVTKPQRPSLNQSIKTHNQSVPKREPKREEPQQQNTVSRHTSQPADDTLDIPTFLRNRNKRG

[14] = test system: Staphylococcus aureus; experiment: Bactericidal activity against methicillin-resistant Staphylococcus aureus ATCC BAA41 assessed as reduction in colony forming units at MIC concentration after 6 hrs by time kill assay; assay type: functional
[15] = test system: Staphylococcus aureus; experiment: Bactericidal activity against methicillin-resistant Staphylococcus aureus ATCC BAA41 assessed as reduction in colony forming units at 1 time MIC concentration after 24 hrs by time kill assay; assay type: functional
[16] = test system: Staphylococcus aureus; experiment: Bactericidal activity against methicillin-resistant Staphylococcus aureus ATCC BAA41 assessed as reduction in colony forming units at 2 times MIC concentration after 6 hrs by time kill assay; assay type: functional
[17] = test system: Escherichia coli; experiment: Bactericidal activity against Escherichia coli ATCC 25922 assessed as reduction in colony forming units at 4 times MIC concentration after 4 hrs by time kill assay; assay type: functional
[18] = test system: Escherichia coli; experiment: Bactericidal activity against Escherichia coli ATCC 25922 assessed as reduction in colony forming units at 1 to 2 times MIC concentration after 24 hrs by time kill assay; assay type: functional
[19] = molecular target: T1, Cell division protein FtsZ (Staphylococcus aureus); experiment: Inhibition of recombinant N-terminal His6-tagged Staphylococcus aureus ATCC 29213 FtzS polymerization expressed in Escherichia coli BL21 (DE3) cells in presence of GTP by fluorescence spectrometry method
[20] = molecular target: T1, Cell division protein FtsZ (Staphylococcus aureus); experiment: (§2) Inhibition of recombinant N-terminal His6-tagged Staphylococcus aureus ATCC 29213 FtzS GTPase activity expressed in Escherichia coli BL21 (DE3) cells assessed as reduction in GTP hydrolysis preincubated for 10 mins followed by GTP addition measured after 30 mins by CytoPhos reagent based assay
[21] = molecular target: T1, Cell division protein FtsZ (Staphylococcus aureus); experiment: as §2, with “hydrolysis at 4 ug/ml” for “hydrolysis”
[22] = molecular target: T1, Cell division protein FtsZ (Staphylococcus aureus); experiment: (§3) Inhibition of recombinant N-terminal His6-tagged Staphylococcus aureus ATCC 29213 FtzS GTPase activity expressed in Escherichia coli BL21 (DE3) cells assessed as reduction in GTP hydrolysis at 8 ug/ml preincubated for 10 mins followed by GTP addition after 30 mins by CytoPhos reagent based assay
[23] = molecular target: T1, Cell division protein FtsZ (Staphylococcus aureus); experiment: as §3, with “16” for “8”, “addition measured” for “addition”

Row | Structure (SMILES) | MIC [1] [µg/mL] | MIC [2] [µg/mL] | MIC [3] [µg/mL] | MIC [4] [µg/mL] | MIC [5] [µg/mL] | MIC [6] [µg/mL] | MIC [7] [µg/mL] | MIC [8] [µg/mL] | MIC [9] [µg/mL] | further results
1 | COc1ccc(Nc2c3ccccc3[n+](C)c3c2oc2ccccc23)cc1.[I-] | 6 | 6 | 4 | 4 | 4 | 8 | 8 | 64 | 64 | inhibition [10]: Active; inhibition [11]: Active; inhibition [12]: Active
2 | COc1ccc(Nc2c3ccccc3[n+](C)c3c2[nH]c2ccccc23)cc1.[I-] | 4 | 4 | 2 | 2 | 2 | 6 | 6 | 48 | 48 | Activity [13]: Active; Activity [14]: 1 ×10² CFU/ml; Activity [15]: 1 ×10³ CFU/ml; Activity [16]: 1 ×10³ CFU/ml; inhibition [17]: Active; inhibition [18]: Active; inhibition [10]: Active; inhibition [19]: Dose-dependent effect; inhibition [11]: Active; inhibition [20]: Dose-dependent effect; inhibition [21]: 20%; inhibition [22]: 50%; inhibition [23]: 60%; inhibition [12]: Active
3 | Cc1ccc(Nc2c3ccccc3[n+](C)c3c2oc2ccccc23)cc1C.[I-] | 8 | 8 | 6 | 6 | 6 | 12 | 12 | > 64 | > 64 | 
4 | CCOc1ccccc1Nc1c2ccccc2[n+](C)c2c1oc1ccccc12.[I-] | 8 | 8 | 6 | 6 | 6 | 12 | 12 | > 64 | > 64 | 
5 | COc1cccc(Nc2c3ccccc3[n+](C)c3c2[nH]c2ccccc23)c1.[I-] | 8 | 8 | 4 | 4 | 4 | 8 | 8 | > 64 | > 64 | 
6 | COc1cccc(Nc2c3ccccc3[n+](C)c3c2oc2ccccc23)c1.[I-] | 8 | 8 | 6 | 6 | 6 | 12 | 12 | > 64 | > 64 | 
7 | C[n+]1c2ccccc2c(Nc2cccc(F)c2)c2oc3ccccc3c21.[I-] | 12 | 12 | 8 | 8 | 8 | 16 | 16 | > 64 | > 64 | 
8 | Cc1cc(C)cc(Nc2c3ccccc3[n+](C)c3c2oc2ccccc23)c1.[I-] | 8 | 8 | 6 | 6 | 6 | 12 | 12 | > 64 | > 64 | 
